Here are results for 23 molecules from patent publication US20230123334A1, “AMINO LIPID COMPOUND, PREPARATION METHOD THEREFOR, AND APPLICATION THEREOF” (SHENZHEN SHENXIN BIOTECHNOLOGY CO., LTD., priority 2020, published 2023).

The structures appear in SMILES notation.

The test deals with HEK293 cells. Nature of the test: Preliminary screening as mRNA vectors, EGFP mRNA transfection of HEK293 cells. The class given is cell-based. As to conditions: EGFP mRNA 50 ng per well, 96-well plates; percentage of GFP fluorescent cells relative to total number of cells (Hoechst). Put shortly:
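Each well of HEK293 cells received 50 ng of EGFP mRNA. Efficiency was expressed as percent GFP-expressing cells over Hoechst-defined total cell number.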
In the case of `CCCCCCCCCCCCCCCSc1nc(NCCN2CCCC2)nc(N(CCCCCCCCCCCC)CCCCCCCCCCCC)n1` [D3S15^2N12], the “Absolute mRNA transfection efficiency in HEK293 cells” value (“Absolute mRNA transfection efficiency” below) is on record as 1.7%. The value for `CCCCCCCCCCCCCCCCSc1nc(NCCN2CCCC2)nc(N(CCCCCCCCCCCC)CCCCCCCCCCCC)n1` [D3S16^2N12] was 0.2%; that for `CCCCCCCCCCCCCCCCCCSc1nc(NCCN2CCCC2)nc(N(CCCCCCCCCCCC)CCCCCCCCCCCC)n1` [D3S18^2N12] was 0.1%; that for `CCCCCCCCCCCCN(CCCCCCCCCCCC)c1nc(NCCN2CCCCC2)nc(SCCCCCC)n1` [D4S6^2N12] was 2.2%.

`CCCCCCCCCCCCN(CCCCCCCCCCCC)c1nc(NCCN2CCCCC2)nc(SCCCCCCC)n1` [D4S7^2N12]: the “Absolute mRNA transfection efficiency” value was 1.0%. For `CCCCCCCCCCCCN(CCCCCCCCCCCC)c1nc(NCCN2CCCCC2)nc(SCCCCCCCC)n1` [D4S8^2N12], the “Absolute mRNA transfection efficiency” value was found to be 1.1%. For `CCCCCCCCCCCCN(CCCCCCCCCCCC)c1nc(NCCN2CCCCC2)nc(SCCCCCCCCC)n1` [D4S9^2N12], the “Absolute mRNA transfection efficiency” value was 0.1%. With `CCCCCCCCCCCCN(CCCCCCCCCCCC)c1nc(NCCN2CCCCC2)nc(SCCCCCCCCCC)n1` [D4S10^2N12], the “Absolute mRNA transfection efficiency” value is 0.1%. Regarding `CCCCCCCCCCCCN(CCCCCCCCCCCC)c1nc(NCCN2CCCCC2)nc(SCCCCCCCCCCC)n1` [D4S11^2N12], the “Absolute mRNA transfection efficiency” value was 0.5%. As to `CCCCCCCCCCCCSc1nc(NCCN2CCCCC2)nc(N(CCCCCCCCCCCC)CCCCCCCCCCCC)n1` [D4S12^2N12], the “Absolute mRNA transfection efficiency” value worked out at 0.5%. Regarding `CCCCCCCCCCCCCCSc1nc(NCCN2CCCCC2)nc(N(CCCCCCCCCCCC)CCCCCCCCCCCC)n1` [D4S14^2N12], the “Absolute mRNA transfection efficiency” value is reported as 0.2%.

As to `CCCCCCCCCCCCCCCSc1nc(NCCN2CCCCC2)nc(N(CCCCCCCCCCCC)CCCCCCCCCCCC)n1` [D4S15^2N12], the “Absolute mRNA transfection efficiency” value amounted to 0.2%. Regarding `CCCCCCCCCCCCCCCCSc1nc(NCCN2CCCCC2)nc(N(CCCCCCCCCCCC)CCCCCCCCCCCC)n1` [D4S16^2N12], the “Absolute mRNA transfection efficiency” value was 0.3%.

With `CCCCCCCCCCCCCCCCCCSc1nc(NCCN2CCCCC2)nc(N(CCCCCCCCCCCC)CCCCCCCCCCCC)n1` [D4S18^2N12], the “Absolute mRNA transfection efficiency” value came to 0.3%.

For the molecule `CCCCCCCCCCCCN(CCCCCCCCCCCC)c1nc(NCCN2CCN(C)CC2)nc(SCCCCCC)n1` [D5S6^2N12], the “Absolute mRNA transfection efficiency” value is listed as 0.3%. The figure for `CCCCCCCCCCCCN(CCCCCCCCCCCC)c1nc(NCCN2CCN(C)CC2)nc(SCCCCCCC)n1` [D5S7^2N12] is 0.2%; for `CCCCCCCCCCCCN(CCCCCCCCCCCC)c1nc(NCCN2CCN(C)CC2)nc(SCCCCCCCC)n1` [D5S8^2N12] it is 0.9%. Take `CCCCCCCCCCCCN(CCCCCCCCCCCC)c1nc(NCCN2CCN(C)CC2)nc(SCCCCCCCCC)n1` [D5S9^2N12]: the “Absolute mRNA transfection efficiency” value is listed as 0.4%. The figure for `CCCCCCCCCCCCN(CCCCCCCCCCCC)c1nc(NCCN2CCN(C)CC2)nc(SCCCCCCCCCC)n1` [D5S10^2N12] is 0.1%; for `CCCCCCCCCCCCN(CCCCCCCCCCCC)c1nc(NCCN2CCN(C)CC2)nc(SCCCCCCCCCCC)n1` [D5S11^2N12] it is 0.6%.

Turning to `CCCCCCCCCCCCSc1nc(NCCN2CCN(C)CC2)nc(N(CCCCCCCCCCCC)CCCCCCCCCCCC)n1` [D5S12^2N12], the “Absolute mRNA transfection efficiency” value is reported as 1.6%.

As to `CCCCCCCCCCCCCCSc1nc(NCCN2CCN(C)CC2)nc(N(CCCCCCCCCCCC)CCCCCCCCCCCC)n1` [D5S14^2N12], the “Absolute mRNA transfection efficiency” value is reported as 0.9%. For `CCCCCCCCCCCCCCCSc1nc(NCCN2CCN(C)CC2)nc(N(CCCCCCCCCCCC)CCCCCCCCCCCC)n1` [D5S15^2N12], the “Absolute mRNA transfection efficiency” value was found to be 0.9%.
